# According to patent publication US20100311170A1, “METHOD FOR REPROGRAMMING DIFFERENTIATED CELLS” (priority 2008, published 2010):
# B1: Wnt3a: Wnt protein isoform (R&D), Wnt/β-catenin pathway activator (protein, UniProt P56704 19-352, looked up)
# Protein Wnt-3a: SYPIWWSLAVGPQYSSLGSQPILCASIPGLVPKQLRFCRNYVEIMPSVAEGIKIGIQECQHQFRGRRWNCTTVHDSLAIFGPVLDKATRESAFVHAIASAGVAFAVTRSCAEGTAAICGCSSRHQGSPGKGWKWGGCSEDIEFGGMVSREFADARENRPDARSAMNRHNNEAGRQAIASHMHLKCKCHGLSGSCEVKTCWWSQPDFRAIGDFLKDKYDSASEMVVEKHRESRGWVETLRPRYTYFKVPTERDLVYYEASPNFCEPNPETGSFGTRDRTCNVSSHGIDGCDLLCCGRGHNARAERRREKCRCVFHWCCYVSCQECTRVYDVHTCK
# Experiments:
# Format in all cases: cell-based, mouse
# [1] = tested on: ES-neo×NS-Oct4-puro cells; assay: PEG fusion of ES-neo cells with NS-Oct4-puro cells, hybrids treated after fusion; AP-positive puromycin-resistant reprogrammed colonies counted; details: for reprogrammed clones with respect to the control (fold): 24 h culture after fusion, Wnt3a 100 ng/ml or BIO 1 μM; for number of reprogrammed clones after prolonged treatment: 48 h of treatment after fusion
# Method: (§1) ES×NS and ES×MEF PEG fusions: 1.2×10^6 NS cells or MEFs were plated into T25 flasks. After 2 h, 1.2×10^6 ES cells were plated onto them, allowing them to attach to the NS cells or MEFs.
# [2] = tested on: ES-neo×MEF-hygro; assay: PEG fusion of ES-neo cells with MEF-hygro cells, hybrids treated after fusion; reprogrammed AP-positive clones counted
# Method: as §1
# [3] = tested on: ES-hygro×thymocyte-neo cells; assay: ES×thymocyte fusion, hybrids cultured in BIO; reprogrammed clones counted
# Method: ES×thymocyte fusions: the cells were fused in suspensions as previously described (Silva et al., 2006). After fusion, they were packed by centrifugation and the supernatant was discarded. The pelleted cells were resuspended in complete ES-cell medium and plated. The selection was carried out after 24 h, using hygromycin plus neomycin.
# [4] = tested on: ES cells fused with NS-Oct4-puro cells; assay: Pretreated-ES×NS PEG fusions (ES cells pre-cultured with Wnt3a or BIO, then fused with non-treated NS-Oct4-puro cells); details: for enhancement of NS reprogramming: ES cells cultured for 12, 48 and 72 h; for total reprogrammed clones / increase in the numbers of reprogrammed clones: ES cells pre-cultured for 24 h and 96 h; for increase in the numbers of reprogrammed clones: Wnt3a 100 ng/ml or BIO 1 μM
# Method: On the last day, the cells were trypsinized, counted, and plated on NS cells for fusions or harvested for RNA and protein analyses. PEG fusions and drug selection were performed as previously described.
# [5] = tested on: NS-Oct4-puro cells; assay: BIO-pretreated NS-Oct4-puro cells fused with non-treated ES-neo cells; details: NS cells pretreated with BIO before fusion
# Method: FIG. 12. […] (A) Plates containing fused hybrid colonies between BIO-treated NS-Oct4-puro cells and non-treated ES-neo cells. The clones were stained for the expression of AP and counted. The fold-change increases in the reprogrammed colonies are shown in the graph (mean±s.e.m.; n=3). (B) Example of a reprogrammed colony isolated from ES-neo cells fused with NS-Oct4-puro cells pretreated with BIO for 24 h. (C) Western blotting of total protein extracts of the NS-Oct4-puro cells at the indicated treatment times.
# ES×NS and ES×MEF PEG fusions: 1.2×10^6 NS cells or MEFs were plated into T25 flasks. After 2 h, 1.2×10^6 ES cells were plated onto them, allowing them to attach to the NS cells or MEFs. After a further 2 h, 1 ml 50% (w/v) PEG 1450 (Sigma; pre-warmed to 37° C.) was added for 2 min, and then the cells were washed three times with serum-free DMEM. […] After 12 h, the cells were trypsinized and plated into gelatin+laminin-treated p100 dishes. For the ES×NS selection, puromycin was added after 72 h, while for the ES×MEF selection, hygromycin plus neomycin were added after 24 h.
# [6] = tested on: ES-neo cells and ES×NS reprogrammed hybrids; assay: Clonogenicity and viability of ES cells and hybrids plated in BIO-containing medium; details: scaled numbers plated
# Method: FIG. 4. […] ES-neo cells (A) and ES×NS reprogrammed hybrids (B) (treated or not for 24 h with BIO) were plated at different densities. After 10 days, the plates were stained for AP and counted. The fold-changes in colonies are shown in the graphs (mean±s.e.m.; n=3).
# [7] = tested on: Topflash reporter gene (β-catenin binding sites fused to luciferase); assay: Topflash luciferase reporter assay in ES cells; details: 24 h
# Method: ES cells were co-transfected by nucleofection (Amaxa) with the Topflash reporter construct driving firefly luciferase cDNA and a pRL-CMV driving constitutive expression of renilla cDNA for normalization. Treatments with Wnt3a and BIO were carried out the day after the nucleofection and cells were lysed with 1× passive reporter lysis buffer. Firefly and renilla reporter activities were measured using a 96-well-based luminometer and were detected as per manufacturer instructions (Promega Dual-Light system),
# [8] = tested on: ES-neo cells with ES-Hygro cells; assay: PEG fusion of BIO-pretreated ES-neo cells with ES-Hygro cells (fusion control)
# Method: FIG. 6. […] Plates containing fused hybrid colonies between ES-neo cells (treated or not for 24 h with BIO) and non-treated ES-hygro cells. The clones were stained for the expression of AP and counted. The fold-change of colonies are shown in the graphs (mean±s.e.m.; n=3). (B) Quantification (as fold-increases in the number of colonies) of hybrid colonies from PEG fusions of ES-neo cells with NS-Oct4-puro cells. Hybrids from two fusion experiments (2,000,000 cells/flask) were allowed to recover for 3 h after PEG fusion. They were then pooled and divided in 5 plates ([…]) in such a way that the cells were not touching each other. Two hours after the plating, the cells were treated with BIO, as indicated. The fold-change increases in the reprogrammed colonies are shown in the graphs (mean±s.e.m.; n=3).
# [9] = tested on: ES-GFP cells with NS-Oct4-puro cells; assay: FACS analysis of the primary fusion products (ES-GFP × NS-Oct4-puro, 3 h after PEG fusion)
# Method: ES-GFP cells were treated or not with BIO for 12, 24, 48, 72 and 96 h and subsequently PEG fused with NS-Oct4-puro cells. Hybrids were trypsinized, counted, resuspended in PBS (1×10^6 cells per point) and centrifuged. Then, 0.1 ml of 4% paraformaldehyde solution was added to the cells and they were incubated for 15 min. Blocking solution (0.1% Triton, 10% goat-serum, in PBS) was subsequently added and the cells incubated for 1 h. The cells were then labelled with α-nestin (1:100) (ab6142, Abcan) overnight. The day after, the cells were incubated with the secondary antibody conjugated with PE fluorocrome (1:50) (ab7002 Abcam) for 1 h. FACS analyses were performed using a BDBiosciences FACSAria cytometer.
# [10] = tested on: NS cells; assay: Toxicity of BIO to NS cells (data not shown); details: BIO concentrations higher than 1 μM
# [11] = tested on: β-catenin; assay: Western blotting and immunofluorescence of β-catenin in treated ES cells
# Method: ES cells were washed twice with phosphate-buffered saline (PBS), fixed with 4% paraformaldehyde and blocked in 5% goat serum for 40 min. […] The cells were then washed and mounted on slides with a few drops of Vectashield with DAPI (Vector Laboratories).
# [12] = tested on: Nanog, Oct4, Rex1, Fgf4, c-Myc; assay: Semiquantitative and quantitative RT-PCR of ES-cell genes and β-catenin targets in pretreated ES cells; details: for expression of pluripotent genes Nanog, Oct4, Rex1 and Fgf4: all treatment times; for c-Myc expression: under Wnt3a and BIO treatments
# Method: For RT-PCR, the total RNA was extracted from ES cells and from embryoid bodies (200 embryoid bodies for each clone and for each differentiation time point) using the RNeasy Kit (Qiagen), and the cDNA was generated using superscript III (Invitrogen). The primers used were: […]
# RNA isolation and reverse transcription were carried out as described for semiquantitative RT-PCR. The template for each PCR reaction was the cDNA obtained from 16 ng total RNA in a 25-μl reaction volume. Platinum SYBR green qPCix-UDG (Invitrogen) was used with an ABprism 7000 real-time PCR machine, according to the manufacturer recommendations. The primers used were: […]
# [13] = tested on: EF4 cells and NS-Oct4-(LV-Hygro) cells; assay: PEG fusions between BIO-pretreated EF4 (Nanog over-expressing) cells and NS-Oct4-(LV-Hygro) cells; details: BIO-pretreated EF4 cells
# Method: NS-Oct4-(LV-Hygro) cells were derived from NS-Oct4-puro and transduced with the letiviral pHRcPPT-PGK-Hygromycin vector. EF4 cells carrying the CAG promoter driving Nanog and Puromycin resistance genes were a gift of Dr. I. Chambers. Cells were cultured as previously described (Chambers et al., 2003).
# NS×ES-Hygro or NS-HygroxEF4 cells PEG fusions were done as previously described. For the NS×ES-Hygro and NS×EF4 selection, Puromycin plus Hygromycin was added after 72 h.
# [14] = cultured in BIO for 12, 24 and 48 h, double-drug selected
# [15] = increased treatment time with BIO
# [16] = increasing BIO concentrations, 24 h
molecule,measurement,setting,value
"O=C1Nc2cc(Br)ccc2/C1=C1/Nc2ccccc2/C1=N\O [BIO, 6-bromoindirubin-3′-oxime]",reprogrammed clones with respect to the control (fold),[1],up to 70 fold
same,number of reprogrammed clones after prolonged treatment,[1],decreased
same,time of BIO treatment giving the peak of reprogrammed clones,"[1]; hybrids re-plated 3 h after fusion at a dilution without cell contact, BIO for 12, 24, 48 and 72 h",24 h
same,increase in numbers of reprogrammed selected clones vs fusions in the absence of BIO,[2]; [14],up to 20 fold
same,reprogramming efficiency with increased treatment time,[2]; [15],lower
same,increase in numbers of reprogrammed selected clones vs fusions in the absence of BIO,[3]; [14],≤ 9 fold
same,reprogramming efficiency with increased treatment time,[3]; [15],lower
same,enhancement of NS reprogramming,[4],poor enhancement
same,total reprogrammed clones,[4],"about 2,000 total clones"
same,increase in the numbers of reprogrammed clones,[4],≤ 80 fold
same,"number of ES-cell-like, AP-positive reprogrammed clones",[5],only a slight increase
same,clonogenicity and viability in absence vs presence of BIO,[6],equal
same,activation of the Topflash reporter gene,[7]; 1 μM BIO,relatively limited activation
same,Topflash activation with increasing concentration,[7]; increasing BIO concentrations,increased Topflash activation
same,number of clones after ES×ES fusion (PEG-mediated fusion),[8],only a slight increase
same,"number of hybrid clones, ES cells pre-treated or not with BIO before fusion",[9],same number of hybrid clones
same,toxicity to NS cells,[10],slightly toxic
same,inhibition of GSK-3 in ES cells,[11]; 1 μM BIO,not fully inhibited
same,levels of phospho-β-catenin with increasing concentration,[11]; [16],decreased levels of phospho-β-catenin
same,β-catenin nuclear localization with increasing concentration,[11]; [16],increased β-catenin nuclear localization
same,"expression of pluripotent genes Nanog, Oct4, Rex1 and Fgf4",[12],same levels
same,c-Myc expression,[12],constantly expressed
same,reprogramming of NS cells with Nanog over-expression plus Wnt pathway activation,[13],cooperate to enhance reprogramming
B1,reprogrammed clones with respect to the control (fold),[1],up to 20 fold
same,number of reprogrammed clones after prolonged treatment,[1],decreased
same,increase in number of AP-positive reprogrammed clones,[2]; hybrids cultured with Wnt3a for 48 h,up to 5 fold
same,enhancement of NS reprogramming,[4],poor enhancement
same,total reprogrammed clones,[4],about 600 total clones
same,increase in the numbers of reprogrammed clones,[4],Up to 15 fold
same,"expression of pluripotent genes Nanog, Oct4, Rex1 and Fgf4",[12],same levels
same,c-Myc expression,[12],constantly expressed
